# “And” between values parts separate entries of the source, which are not always exact repeats. Identical values can stand only once. Like-named read-outs stand apart in the source and are kept apart here.
# How the values were obtained:
# [1] = Comparison of chelating effects, divalent cation electrode and ion analyzer; type: binding; set-up: unit not given here
# Protocol: The chelating effects of the various chelators were measured by the conventional method known to an artisan in the art. The concentration of the ions chelated by the chelator was determined using a divalent cation electrode (e.g., Model 93-32, made by Orion Research Incorporated) and an ion analyzer (e.g., Model EA 920, made by Orion Research Incorporated).
# [2] = at 66 grams/liter; cited from earlier work
# [3] = Biodegradability, 301 A DOC Die-Away Test (OECD Guidelines)
# Protocol: The biodegradability of phytic citrate was evaluated according to the method of “301 A DOC Die-Away Test” (1993), OECDGuidelines for Testing of Chemicals.
# [4] = Re-dissolution rate of Fe^2+, FIG. 2; details: in brain tissues, compared with phytic acid and EDTA
# [5] = 7 days, test suspension / reference flask
# [6] = 14 days, test suspension / reference flask
molecule,measurement,setting,value
O=C(O)[C@H](O)[C@@H](O)[C@H](O)[C@H](O)CO [Gluconic acid],Ca^2+ (conc. of ions chelated),[1],1.20
Polyphosphoric acid,Ca^2+ (conc. of ions chelated),[1],3.0
O=P(O)(O)O[C@H]1[C@H](OP(=O)(O)O)[C@@H](OP(=O)(O)O)[C@H](OP(=O)(O)O)[C@@H](OP(=O)(O)O)[C@H]1OP(=O)(O)O [Phytic acid],Ca^2+ (conc. of ions chelated),[1]; pH 3,9.73
same,Ca^2+ (conc. of ions chelated),[1]; pH 5,10.55
same,Ca^2+ (conc. of ions chelated),[1]; pH 7,10.57
same,pH of aqueous solution,[2],0.9
CC(O)C(=O)O (stereo not drawn) [Lactic acid],Ca^2+ (conc. of ions chelated),[1],1.07
"O=C(O)CN(CCN(CC(=O)O)CC(=O)O)CC(=O)O [EDTA, ethylenediaminetetraacetic acid]",Ca^2+ (conc. of ions chelated),[1],10.70
"Nc1ccccc1 [Aniline Reference, Aniline, reference compound]",Degradation (%) in days,[3]; [5],>90 (100) %
same,Degradation (%) in days,[3]; [6],>90 (99.7) %
phytic hexa-citrate [Phytic citrate],Degradation (%) in days,"[3]; 7 days, abiotic sterile control",<10%
same,Degradation (%) in days,"[3]; 7 days, absorption control",<10%
same,Degradation (%) in days,[3]; [5],>90 (98.0) % and >90 (97.6) % and >90 (99.4) %
same,Degradation (%) in days,[3]; 14 days (mean of test suspension flasks 1-3),>90 (99.5) %
same,Degradation (%) in days,"[3]; 14 days, abiotic sterile control",<10%
same,Degradation (%) in days,"[3]; 14 days, absorption control",<10%
same,Degradation (%) in days,[3]; [6],>90 (98.6) % and >90 (100) %
same,Biodegradability (conclusion in words),[3]; results of Table 3,readily biodegradable
same,Re-dissolution rate of Fe^2+,[4],superior redissolution capability to phytic acid and EDTA
same,Ca^2+ (conc. of ions chelated),[1],12.24
O=C(O)CC(O)(CC(=O)O)C(=O)O [Citric acid],Ca^2+ (conc. of ions chelated),[1],3.50
